Assay results published in patent US9109048B2, “Inhibition of tumor growth” (priority 1998, dated 2015).
Ends that are not written are not given here.

What was measured:
[1] = tested on: Staphylococcus aureus ATCC 25923; experiment: MIC (minimum inhibitory concentration) test, microdilution; type: cell-based
Experimental: (§1) The bacterial strains used were: Escherichia coli ATCC 25922 and Staphylococcus aureus ATCC 25923. All strains were stored at −70° C. The bacteria were grown in 2% Bacto Peptone water (Difco 1807-17-4). All tests were performed with bacteria in mid-logarithmic growth phase. Determination of the minimum inhibitory concentration (MIC) of the peptides for bacterial strains were performed in 1% Bacto Peptone water. A standard microdilution technique with an inoculum of 2×10^6 CFU/ml was used. All assays were performed in triplets. Since the peptides are positively charged and therefore could adhere to the plastic wells, we controlled the actual concentration of the peptides in the solution by HPLC. There was no difference between the concentration of the peptides before or after adding the solution to the plastic wells.

[2] = tested on: Escherichia coli ATCC 25922; experiment: as above; type: cell-based
Experimental: as §1

[3] = tested on: Meth A cells (murine sarcoma cell line); experiment: Cytotoxicity on Meth A cells, MTT method
Experimental: Peptide solutions (0.1 ml) were added and the plates incubated at 37° C. for 30 minutes, 4 hours or 24 hours. The cytotoxicity was measured using the MTT method (Mosmann et al., J. Immunol. (1986) 136, 2348-2357).
Cells in the growth phase were harvested and washed in fresh medium and injected subcutaneously into the abdominal region of the mice.
The cytotoxic effect of the peptides on different murine and human tumor cells were measured using the MTT method (Mosmann et al., J. Immunol. (1986) 136, 2348-2357).
MTT is a soluble tetrazolium salt yielding a yellow solution when prepared in media or salt solutions lacking phenol red. Dissolved MTT is converted to an insoluble purple formazan by cleavage of the tetrazolium ring by dehydrogenase enzymes. This water insoluble formazan can be solubilized using isopropanol or other solvents and the dissolved material is measured spectrophotometrically. The absorbance was measured as a function of concentration of converted dye.
Cells were maintained in […] medium containing 10% FBS, 1% L-glutamine and 0.1% penicillin and streptomycin. Cells to be used in the assay were grown to confluency, trypsinated and split to single cell suspension, counted and centrifuged at 1500 rpm for 10 min. […][…] of cell suspension was transferred to each well on a 96-well microtiter plate. The cells were stimulated by adding […] of various concentrations of peptides diluted with assay medium to each well. The final concentrations of peptide were for example: 5, 10, 20, 40, 60, 80, 100, and 200 mg/ml. […] As a negative control only medium was added to the cells, and as a positive control (100% killing) 1% triton X-100 was added. Following an incubation period of 4 h., 20 ml MTT dissolved in PBS at a concentration of 5 mg/ml was added to each well, and the plate was incubated further for 2 h. 130 ml of the supernatant were then removed and […] acid alcohol (0.04-0.1 N HCl in isopropanol) added to each well to dissolve the dark blue crystals. The plate was placed on a shaker for 1 h and read spectrophotometrically at 590 nm in a microtiterplate reader using the Softmaxâ program.

human red blood cells = experiment: Hemolytic assay; type: cell-based; conditions: red cells of human
Experimental: The hemolytic activities of the peptides were determined using fresh human red blood cells. 8 ml blood was taken from a healthy person. 4 ml blood was transferred to a polycarbonate tube containing heparin to a final concentration of 10 U/ml, and the remaining 4 ml blood was transferred to a glass tube containing EDTA with final concentration of 15% EDTA. The erythrocytes were isolated from heparin-treated blood by centrifugation in 1500 rpm for 10 min and washed three times with phosphate-buffered saline (PBS) to remove plasma and buffy coat. The cell pellet was resuspended in PBS to make the final volume of 4 ml. The peptide was diluted to a concentration of 2 mg/ml and 0.1 mg/ml. The peptide was further diluted to the concentrations as stated in Table 1. For each tube PBS was added first, then RBCs and peptide solutions. The hematocrit in the blood treated with EDTA was determined after 30 min with Sysmex K-1000, and the resuspended RBCs were diluted into 10% hematocrit. RBCs in PBS (1%) with and without peptides (Table 18) were incubated in a shaker at 37° for 1 hour and then centrifuged at 4000 rpm for 5 min. The supernatant were carefully transferred to new polycarbonate tubes and the absorbance of the supernatant was measured at 540 nm. Baseline hemolysis was hemoglobin released in the presence of PBS, and 100% hemolysis was hemoglobin released in the presence of 0.1% Triton X-100.

[4] = tested on: MRSA (methicillin resistant S. aureus); type: cell-based; conditions: Table 15
Experimental: as §1
Table 15 below gives the antibacterial activity and toxicity data for some preferred peptides of the invention. MRSA is methicillin resistant S. aureus and MRSE is methicilin resistant S. epidermidis.

[5] = Table 7, in µg/mL (unit assumed)

Row | MIC S. aureus ([1]; ATCC 25923) | MIC E. coli ([2]; ATCC 25922) | Substance | Meth A IC 50 ([3]; 4 h) | also measured
1 |  |  | H-GIGKFLHSAKKFGKAFVGEIMNS-OH [Mag2, reference compound] |  | MIC S. aureus [1, 5]: >200; MIC S. aureus ([1]; Table 11): >100 µg/mL; MIC E. coli [2, 5]: 20; MIC E. coli ([2]; Table 11): 20 µg/mL; Meth A IC 50 ([3]; Table 11, peptide required to kill 50% of Meth A cells): 100 µg/mL
2 | 8 µg/mL | 8 µg/mL | H-GIGKFLKKARKFGRAFVRILKKG-OH [Tosmag, reference compound] | 18 µg/mL | 
3 | 5 µg/mL | 5 µg/mL | H-KMASKAGKIAGKIAKVALKAL-NH2 [MSI 24, reference compound] | >100 µg/mL | 
4 |  |  | H-KVALKALKVALKALKVALKAL-NH2 [MSI 20, reference compound] | >100 µg/mL | 
5 | 2.5 µg/mL | 5 µg/mL | KMASKAGKIAWKIAKVALKAL-NH2 (C-terminus assumed) [MSI 24 W11] | 24 µg/mL | 
6 | 5 µg/mL | 5 µg/mL | KMASKAWKIAGKIAKVALKAL-NH2 (C-terminus assumed) [MSI 24 W7] | 26 µg/mL | 
7 |  |  | KVALKWLKVALKALKVALKAL-NH2 (C-terminus assumed) [MSI 20 W6] | 22 µg/mL | 
8 |  |  | Linear LFB (17-41) modified with Pmc: Linear LFB (17-41) modified with Pmc (FKCRRWQWRMKKLGAPSITCVRRAF; cysteine pairing not given here; also: modified with Pmc group, site not given here; UniProt P24627 36-60, looked up, fragment) |  | cytotoxic effect on Meth A cells compared with another peptide [3]: slightly more effective than Pmc modified LFB 17-31
9 | 8.8 µM | 13.1 µM | PAWRKARRWAWRMKKLAA-OH [LFB 14-31 A2,6,10,17R4] |  | EC 50 (toxicity, hemolysis) (human red blood cells): >1000 µg/mL; MIC S. aureus ([1]; Table 8): 20 µg/mL; MIC S. aureus ([1]; Table 15): 20.0 µg/mL; MIC E. coli ([2]; Table 8): 30 µg/mL; MIC E. coli ([2]; Table 15): 30.0 µg/mL
10 |  |  | YRWWRWARRW-NH2 [LFM 17-26 A7R2,8,9W3,4, 10Y1NH2] |  | MIC S. aureus ([1]; Table 15): 1.0 µg/mL; MIC E. coli ([2]; Table 12): 10 µg/mL; MIC E. coli ([2]; Table 15): 10.0 µg/mL; MIC MRSA [4]: 2.5 µg/mL
